Test results as given in the NIST ThermoML archive (doi:10.1016/j.jct.2016.12.033).

Experiment: mn = molality of the nth substance listed, in mol/kg
Details: 101.3 kPa, Liquid; for viscosity: Capillary tube (Ostwald / Ubbelohde) method; for mass density: Pycnometric method

Cc1ncc(CO)c(CO)c1O.Cl [5-hydroxy-6-methyl-3,4-pyridinedimethanol hydrochloride] + O
Details	mass density [kg/m3]	viscosity [mPa·s]
275.15 K, m1 = 0.0101	1000.6	1.687
275.15 K, m1 = 0.0204	1001.28	1.695
275.15 K, m1 = 0.03	1001.91	1.703
275.15 K, m1 = 0.0357	1002.27	1.706
275.15 K, m1 = 0.0401	1002.55	1.708
275.15 K, m1 = 0.0454	1002.9	1.712
275.15 K, m1 = 0.0505	1003.22	1.719
275.15 K, m1 = 0.0557	1003.54	1.722
275.15 K, m1 = 0.0695	1004.4	1.725
275.15 K, m1 = 0.0766	1004.84	1.73
275.15 K, m1 = 0.0801	1005.06	1.735
275.15 K, m1 = 0.0857	1005.41	1.737
275.15 K, m1 = 0.0882	1005.58	1.739
275.15 K, m1 = 0.1004	1006.38	1.75
277.15 K, m1 = 0.0099	1000.61	1.576
277.15 K, m1 = 0.0202	1001.27	1.58
277.15 K, m1 = 0.0252	1001.59	1.584
277.15 K, m1 = 0.0299	1001.89	1.588
277.15 K, m1 = 0.035	1002.22	1.592
277.15 K, m1 = 0.04	1002.54	1.597
277.15 K, m1 = 0.0497	1003.15	1.603
277.15 K, m1 = 0.0598	1003.79	1.606
277.15 K, m1 = 0.0658	1004.16	1.607
277.15 K, m1 = 0.0683	1004.32	1.609
277.15 K, m1 = 0.0753	1004.75	1.615
277.15 K, m1 = 0.0797	1005.02	1.619
277.15 K, m1 = 0.0882	1005.55	1.625
277.15 K, m1 = 0.1004	1006.29	1.629
279.15 K, m1 = 0.01	1000.56	1.477
279.15 K, m1 = 0.0199	1001.18	1.479
279.15 K, m1 = 0.0253	1001.51	1.484
279.15 K, m1 = 0.0298	1001.8	1.488
279.15 K, m1 = 0.0351	1002.13	1.495
279.15 K, m1 = 0.0397	1002.42	1.5
279.15 K, m1 = 0.0492	1003	1.499
279.15 K, m1 = 0.055	1003.36	1.507
279.15 K, m1 = 0.0578	1003.53	1.505
279.15 K, m1 = 0.0648	1003.96	1.515
279.15 K, m1 = 0.069	1004.22	1.522
279.15 K, m1 = 0.0798	1004.9	1.524
279.15 K, m1 = 0.0897	1005.51	1.53
279.15 K, m1 = 0.0996	1006.16	1.535

O=C1O[C@H]([C@@H](O)CO)C([O-])=C1O.[Na+] [sodium L-ascorbate] + O
Details	mass density [kg/m3]	viscosity [mPa·s]
275.15 K, m1 = 0.01	1001.05	1.68
275.15 K, m1 = 0.0201	1002.2	1.691
275.15 K, m1 = 0.0303	1003.31	1.703
275.15 K, m1 = 0.0348	1003.83	1.703
275.15 K, m1 = 0.04	1004.41	1.706
275.15 K, m1 = 0.0451	1004.94	1.708
275.15 K, m1 = 0.05	1005.5	1.718
275.15 K, m1 = 0.0598	1006.59	1.727
275.15 K, m1 = 0.0699	1007.71	1.736
275.15 K, m1 = 0.0749	1008.27	1.745
275.15 K, m1 = 0.0835	1009.12	1.748
275.15 K, m1 = 0.0849	1009.32	1.747
275.15 K, m1 = 0.0902	1009.85	1.757
275.15 K, m1 = 0.0999	1010.96	1.765
277.15 K, m1 = 0.01	1001.09	1.572
277.15 K, m1 = 0.02	1002.17	1.578
277.15 K, m1 = 0.0301	1003.31	1.586
277.15 K, m1 = 0.0351	1003.85	1.591
277.15 K, m1 = 0.0402	1004.45	1.595
277.15 K, m1 = 0.05	1005.5	1.601
277.15 K, m1 = 0.0601	1006.59	1.609
277.15 K, m1 = 0.065	1007.13	1.616
277.15 K, m1 = 0.0697	1007.7	1.619
277.15 K, m1 = 0.075	1008.2	1.626
277.15 K, m1 = 0.0798	1008.75	1.628
277.15 K, m1 = 0.0851	1009.29	1.634
277.15 K, m1 = 0.0898	1009.82	1.641
277.15 K, m1 = 0.1003	1010.95	1.646
279.15 K, m1 = 0.0105	1001.12	1.479
279.15 K, m1 = 0.0201	1002.16	1.482
279.15 K, m1 = 0.0301	1003.23	1.491
279.15 K, m1 = 0.0348	1003.74	1.494
279.15 K, m1 = 0.0402	1004.33	1.498
279.15 K, m1 = 0.045	1004.84	1.503
279.15 K, m1 = 0.0501	1005.39	1.506
279.15 K, m1 = 0.0602	1006.49	1.516
279.15 K, m1 = 0.065	1007.01	1.52
279.15 K, m1 = 0.0699	1007.54	1.531
279.15 K, m1 = 0.0752	1008.12	1.532
279.15 K, m1 = 0.0852	1009.19	1.538
279.15 K, m1 = 0.0904	1009.74	1.541
279.15 K, m1 = 0.1005	1010.79	1.548

Cc1ncc(C[n+]2csc(CCO)c2C)c(N)n1.Cl.[Cl-] [thiamine hydrochloride] + O
Details	mass density [kg/m3]	viscosity [mPa·s]
275.15 K, m1 = 0.0101	1001.03	1.692
275.15 K, m1 = 0.0201	1002.1	1.7
275.15 K, m1 = 0.0249	1002.6	1.712
275.15 K, m1 = 0.0302	1003.15	1.718
275.15 K, m1 = 0.04	1004.19	1.728
275.15 K, m1 = 0.0451	1004.73	1.736
275.15 K, m1 = 0.0499	1005.24	1.745
275.15 K, m1 = 0.055	1005.78	1.752
275.15 K, m1 = 0.0611	1006.45	1.759
275.15 K, m1 = 0.0645	1006.81	1.76
275.15 K, m1 = 0.0701	1007.4	1.771
275.15 K, m1 = 0.0751	1007.91	1.776
275.15 K, m1 = 0.0792	1008.33	1.776
275.15 K, m1 = 0.0897	1009.33	1.788
275.15 K, m1 = 0.1001	1010.2	1.8
277.15 K, m1 = 0.0101	1001.04	1.575
277.15 K, m1 = 0.0201	1002.1	1.591
277.15 K, m1 = 0.025	1002.61	1.593
277.15 K, m1 = 0.0299	1003.12	1.604
277.15 K, m1 = 0.0401	1004.18	1.61
277.15 K, m1 = 0.0452	1004.7	1.621
277.15 K, m1 = 0.0501	1005.2	1.627
277.15 K, m1 = 0.055	1005.69	1.632
277.15 K, m1 = 0.0598	1006.18	1.64
277.15 K, m1 = 0.0653	1006.74	1.646
277.15 K, m1 = 0.0704	1007.25	1.66
277.15 K, m1 = 0.0803	1008.25	1.672
277.15 K, m1 = 0.0822	1008.45	1.671
277.15 K, m1 = 0.0898	1009.24	1.678
279.15 K, m1 = 0.008	1000.76	1.481
279.15 K, m1 = 0.02	1002	1.494
279.15 K, m1 = 0.0249	1002.52	1.497
279.15 K, m1 = 0.0301	1003.05	1.505
279.15 K, m1 = 0.04	1004.08	1.512
279.15 K, m1 = 0.045	1004.59	1.517
279.15 K, m1 = 0.0501	1005.11	1.521
279.15 K, m1 = 0.0552	1005.63	1.527
279.15 K, m1 = 0.0603	1006.15	1.529
279.15 K, m1 = 0.0652	1006.65	1.542
279.15 K, m1 = 0.0703	1007.16	1.549
279.15 K, m1 = 0.0751	1007.64	1.556
279.15 K, m1 = 0.0798	1008.1	1.563
279.15 K, m1 = 0.0897	1009.09	1.57
279.15 K, m1 = 0.1001	1010.12	1.581
